# From the METLIN SMRT retention time set (Domingo-Almenara et al. 2019)
# Test: gradient 5% acetonitrile 3 min, to 50% in 2 min, to 85% in 15 min, held 3 min, 100 µL/min
# Settings: column: Zorbax Extend-C18 2.1 x 50 mm; eluents: water / acetonitrile, 0.1% formic acid
# Procedure, shortened: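 Standards, all pure, were combined into mixtures of ~100 molecules and run at 100 μL/min on a Zorbax Extend-C18 column (2.1 × 50 mm, 1.8 μm) with water and acetonitrile, each containing 0.1% formic acid. A coupled quadrupole time-of-flight mass spectrometer operated in positive and negative ionization mode. Retention time values come from computationally picked adduct peaks, each inspected manually.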
row,Structure (SMILES),RP-LC retention time
1,CCCNC(=O)c1ccc(-c2nc3cc(NS(=O)(=O)c4cccs4)ccc3n2C)cc1,662 s
2,O=C(NCc1ccccc1)C1Cc2ccccc2CN1S(=O)(=O)c1ccccc1 (stereo not drawn),981 s
3,CCn1ccc2sc(C)c(C(=O)NCc3cc(OC)ccc3OC)c2c1=O,716 s
4,Cc1ccc(S(=O)(=O)N2CCCN(C)c3ccccc32)cc1C,603 s
5,O=C(NCc1ccc2c(c1)OCO2)C1CCN(C(=O)c2cccc(F)c2)CC1,719 s
6,COc1cccc(S(=O)(=O)Nc2ccc3c(c2)CCC(=O)N3CC(C)C)c1,868 s
7,COc1ccc(-c2noc(Cn3ccn4nc(-c5ccc(C)cc5)cc4c3=O)n2)cc1OC,986 s
8,CC(=O)N1CCc2ccccc2C1C(=O)NCc1cccs1 (stereo not drawn),720 s
9,Cc1ccc(-n2cc3c(N4CCCC(C(=O)NCc5ccc(Cl)cc5)C4)ncnc3n2)cc1 (stereo not drawn),750 s
10,CCc1nc(-c2cc(S(=O)(=O)N3CCN(c4ccc(F)cc4)CC3)c(C)s2)cs1,1220 s
11,CCc1ccc(NC(=O)Cn2nc(N3CCSCC3)c3ccccc3c2=O)cc1,1040 s
12,COc1ccc(NC(=O)C2CCN(S(=O)(=O)c3cc(-c4noc(C5CC5)n4)cs3)CC2)cc1,960 s
13,c1ccc(-n2ncc3c(Nc4ccc5c(c4)OCO5)nc(N4CCCC4)nc32)cc1,1350 s
14,COC(=O)c1sc2ccccc2c1S(=O)(=O)N1CCC(C(N)=O)(N2CCCCC2)CC1,652 s
15,CC1CCN(S(=O)(=O)c2ccc(-c3nnc(C(=O)NCCCN4CCCC4)o3)cc2)CC1,689 s
16,Cc1ccn(-c2cc(Cl)ccc2[C@@H](Oc2cc(-c3ccc(C[C@H](N)C(=O)O)cc3)nc(N)n2)C(F)(F)F)n1,834 s
17,COc1cc(NC(=O)NC2CCN(c3ccc(F)cc3)C2=O)cc(OC)c1 (stereo not drawn),769 s
18,CCNc1cc(C)nc(N2CCN(C(=O)CC)CC2)n1,567 s
19,COC(=O)C1=CN(c2cccc(C)c2)c2cc(F)ccc2S1(=O)=O,911 s
20,CCOc1cc(=O)c(C(N)=O)nn1-c1ccc(C)cc1,613 s
21,COc1cc(C(=O)Nc2cccc(N3CCCS3(=O)=O)c2)c([N+](=O)[O-])cc1OC,681 s
22,CCOC(=O)N1CCC2(CC1)OC(=O)C(C)=C2C(=O)Nc1cccc(OC)c1,845 s

row,Structure (SMILES),RP-LC retention time
1,Cn1ncc2c3ccccc3n(CC(=O)N3CCN(c4ncccn4)CC3)c2c1=O,700 s
2,COc1ccc(-c2noc(Cc3nnc(-c4ccc(OC)cc4)o3)n2)cc1,949 s
3,COc1ccccc1/C=C/c1nc(-c2ccc3oc(C)nc3c2)no1,1080 s
4,Cc1ccc(-c2csc(NC(=O)COc3ccccc3C(C)(C)C)n2)cc1,1380 s
5,Cc1cccc(CN2CCc3nc(N4CCN(c5ccccc5F)CC4)ncc3C2)c1,810 s
6,COc1ccc(NC(=O)NC2CCN(c3ccc(C)cc3)C2=O)cc1OC (stereo not drawn),720 s
7,O=C(Nc1cccc(-c2nc3ccccc3o2)c1)c1ccc(F)cc1F,994 s
8,O=C1NC2CCCCC2=C1CC(=O)N1CCCCC1 (stereo not drawn),633 s
9,CC(C)NC(=O)c1ccc(OCC2CCN(C(=O)C3CCCO3)CC2)cc1 (stereo not drawn),697 s
10,CCCn1cc(S(=O)(=O)Nc2cccc(C)c2C)c2cccnc21,943 s
11,Cc1cc(C(=O)Nc2ccc3nc(N4CCN(C)CC4)sc3c2)on1,544 s
12,O=C1c2cccc(OCC(=O)N3CCCc4ccccc43)c2CCN1Cc1cccnc1,594 s
13,CC(=O)N1CCc2sc(S(=O)(=O)NCc3ccc4c(c3)OCO4)cc2C1,727 s
14,CC(C)c1nc(-c2ccc(OC3CCN(C(=O)Cc4c[nH]c5ccccc45)C3)cc2)no1 (stereo not drawn),923 s
15,Cc1cc(C)cc(NC(=O)N2CCC(n3cnc4ccccc4c3=O)CC2)c1,809 s
16,CCc1csc(-c2cn(CC(=O)NCc3cccc(C(F)(F)F)c3)cn2)n1,768 s
17,Cc1ccc(NC(=O)C2CCCN2S(=O)(=O)c2cc3c(cc2C)NC(=O)C(C)O3)cc1C (stereo not drawn),842 s
18,CCc1nc2nc3c(cn2n1)C(=O)CC(C)(C)C3,693 s
19,Cc1cc(C)n(-c2ccc(Nc3ccc(NS(=O)(=O)c4cccc(F)c4)cc3)nn2)n1,817 s
20,CCc1onc(C)c1C1CCCN1C(=O)c1ccc(F)cc1 (stereo not drawn),736 s
21,COc1cc(NC(=O)C2CCCN(c3nc4ccccc4nc3C(F)(F)F)C2)cc(OC)c1 (stereo not drawn),1180 s
22,O=C(Cn1c2ccccc2n2c(=O)cc(-c3ccncc3)nc12)NC1CCCC1,660 s

row,Structure (SMILES),RP-LC retention time
1,O=C([C@@H]1C[C@H](Oc2ccccc2)CN1C(=O)c1ccsc1)N1CCCC1,756 s
2,COc1ccccc1Cc1noc(C2CN(C(=O)c3ccc4nsnc4c3)C2)n1,814 s
3,Cc1sc2ccn(C)c(=O)c2c1C(=O)N1CCN(c2ccccc2)CC1,728 s
4,COc1ccc(-c2nc3ncccn3c2Nc2cccc(C)c2)cc1,743 s
5,Cc1cc2nn(CC(=O)N3CCCC3)c(=O)n2c(Nc2ccc(C)c(F)c2)n1,922 s
6,CCOC(=O)CNC(=O)N1CCCC1c1ccccc1C (stereo not drawn),768 s
7,O=C(CCc1csc2nc(C3CC3)cn12)Nc1nc2ccccc2s1,594 s
8,Cc1nnsc1C(=O)Nc1ccc(-n2nc(C(F)(F)F)cc2C(F)(F)F)cc1,758 s
9,CS(=O)(=O)N1CCCC1C(=O)Nc1ccc(F)cc1 (stereo not drawn),693 s
10,CCc1cccc(NC(=O)Cc2nnc3cc(-c4nc(C(C)C)no4)ccn23)c1,918 s
11,Cc1cccc(Nc2c(-c3ccc(N(C)C)cc3)nc3cnccn23)c1C,900 s
12,CCCNS(=O)(=O)c1cc(-c2nnc(-c3ccccc3)o2)ccc1F,939 s
13,COC(=O)c1ccc(-c2nc3cnccn3c2Nc2ccc(OC)c(OC)c2)cc1,769 s
14,COCCNC(=O)c1ccc(-n2nc(Sc3ccc(Cl)cc3)ccc2=O)cc1,828 s
15,Cc1ccc(-n2c(N3CCC(C(=O)NC(C)c4ccc(F)cc4)CC3)nc3ccsc3c2=O)cc1 (stereo not drawn),1010 s
16,CC(C)OCCCNC(=O)COc1ccccc1-c1nnc(-c2ccccc2)o1,631 s
17,O=C(c1cc(-c2ccncc2)n[nH]1)N1CCN(C(=O)c2cc3ccccc3[nH]2)CC1,598 s
18,O=C(NCc1csc(C2CCN(C(=O)c3ccc(F)c(F)c3)CC2)n1)C1CCC1,742 s
19,N#Cc1cccc(CN2CCCC(c3nc(-c4ccncc4)n[nH]3)C2)c1 (stereo not drawn),494 s
20,Cc1cc(-c2nc(-c3ccc(OC(F)(F)F)cc3)no2)nn1Cc1ccnc(N2CCN(C3CC3)CC2)c1,957 s
21,Cc1ccc(CNC(=O)N2CCCC(OCc3nc(C)no3)C2)cc1 (stereo not drawn),770 s
22,CCCN(CC1CCOC1)C(=O)Nc1cccc(C(F)(F)F)c1 (stereo not drawn),922 s

row,Structure (SMILES),RP-LC retention time
1,COc1ccc(CC(=O)NCCc2c[nH]c3ccc(Cl)cc23)cc1,848 s
2,O=C(CSc1nc2ccccc2[nH]c1=O)Nc1ccccc1,699 s
3,CCn1cc2c3c(cccc31)CN(C(=O)Nc1cccc(C)c1)CC2,1050 s
4,O=C(NCCN1CCCCC1)C1CCCN(c2cnc3nccnc3c2)C1 (stereo not drawn),562 s
5,O=C(Cc1csc(NC(=O)Nc2cccc(Cl)c2)n1)Nc1ccccc1,924 s
6,CC(C)n1c(N2CCN(C(=O)CCc3nc4ccccc4[nH]3)CC2)cc(=O)n(C(C)C)c1=O,648 s
7,CCOc1ccc(CC(=O)N2CC(C(=O)NC)C3(CCCC3)C2)cc1OCC (stereo not drawn),726 s
8,COc1cc(-c2ccc(Nc3ccccc3C(=O)O)c(OC)c2)ccc1Nc1ccccc1C(=O)O,1290 s
9,O=C(Nc1cccc(C(F)(F)F)c1)NC1CCN(c2cc(N3CCCC3)cnn2)C1 (stereo not drawn),617 s
10,CN(CCc1noc(COc2ccc(Cl)cc2)n1)C(=O)NC(C)(C)C,953 s
11,CNC(=O)c1csc(NC(=O)Cc2ccc(OC)cc2)n1,634 s
12,COc1ccc(NC(=O)N2CCc3cn(C)c4cccc(c34)C2)cc1Cl,917 s
13,COc1ccc2c(c1)C1(CCN(C(=O)c3cccs3)C1)C(=O)N2C (stereo not drawn),738 s
14,CSc1nc2ccc3nc(NC(=O)c4cc(C)no4)sc3c2s1,1010 s
15,CN1c2ccc(Cl)cc2C(=O)NC12CCN(C(=O)c1cccc(F)c1)CC2,808 s
16,CCCn1cc(C(=O)NCCCOC)c(S(=O)(=O)N2CCN(c3ccccc3Cl)CC2)n1,1020 s
17,Cn1c(CNC(=O)CCC2CCCN(c3cc(NC4CC4)ncn3)C2)nc2ccccc21 (stereo not drawn),560 s
18,Cc1ccc(CNC(=O)C2CCCN(S(=O)(=O)c3c[nH]c(C(=O)N4CCCC4)c3)C2)o1 (stereo not drawn),729 s
19,CCS(=O)(=O)N1CC(=O)N(c2cc(C)cc(C)c2)C(C)(C(=O)NCc2ccccc2)C1 (stereo not drawn),868 s
20,Cn1nc(-c2nc(-c3ccccc3F)no2)c2c1CCN(C(=O)NC(C)(C)C)C2,594 s
21,Cc1cccc(CN2CCn3c(nnc3[C@@H]3C[C@@H](O)CN3Cc3cccnc3)C2)c1,586 s
22,O=C(NCCCN1CCCCCC1)C(c1ccccc1)C1CCCCC1 (stereo not drawn),875 s
